From patent US20060069123A1, “Substituted dipiperidine CCR2 antagonists” (priority 2004, published 2006)
Where two headings read alike, the source gives them in different places.

Legend:
Lewis rats [1] = conditions: orally, once per day, 3 mg/kg, days 10-14 (positive control)
Lewis rats [2] = experiment: Adjuvant-Induced Arthritis Model (Therapeutic Dosing from Day 12-16); type: in vivo; conditions: orally, once per day, 3 mg/kg (positive control), therapeutic study
From the text: Adjuvant-Induced Arthritis Model (Therapeutic Dosing from Day 12-16)

THP-1 cells [3] = conditions: for IC50: Homo sapiens, THP-1, read-out: Inhibition of MCP-1 Induced Calcium Ion Influx IC50
THP-1 cells [4] = experiment: MCP-1 Induced Chemotaxis in THP-1 Cells; type: cell-based; conditions: THP-1 cells, MCP-1 0.01 μg/mL, 3 hours, read-out: Inhibition of MCP-1 Induced Chemotaxis IC50
CCR2 = target: T1, CCR2 (Homo sapiens, UniProt P41597)
T1 sequence (P41597 1-360 isoform P41597-2): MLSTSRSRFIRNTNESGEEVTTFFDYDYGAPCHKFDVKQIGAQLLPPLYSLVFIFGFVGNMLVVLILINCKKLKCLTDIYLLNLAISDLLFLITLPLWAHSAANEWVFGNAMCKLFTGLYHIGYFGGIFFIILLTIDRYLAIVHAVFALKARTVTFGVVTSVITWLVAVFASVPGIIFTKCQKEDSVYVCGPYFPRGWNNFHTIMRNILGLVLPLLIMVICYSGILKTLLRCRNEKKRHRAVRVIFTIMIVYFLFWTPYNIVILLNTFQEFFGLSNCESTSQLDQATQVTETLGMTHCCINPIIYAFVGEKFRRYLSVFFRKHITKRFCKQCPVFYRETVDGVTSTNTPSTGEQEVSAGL

| Structure (SMILES) | IC50 (THP-1 cells [3]) [nM] | IC50 (THP-1 cells [4]; Homo sapiens) [nM] | IC50 (CCR2) [nM] | other results |
| --- | --- | --- | --- | --- |
| COc1ccc2c(c1)c(CC(=O)O)c(C)n2C(=O)c1ccc(Cl)cc1 [Indomethacin, indomethacin, reference compound] |  |  |  | inhibited contralateral paw swelling (Lewis rats [1]): 72%; inhibited swelling in the adjuvant-injected paws (Lewis rats [1]): 38%; inhibited adjuvant-injected paw swelling (Lewis rats [2]): 40%; inhibited contralateral paw swelling (Lewis rats [2]): 69% |
| O=C(/C=C/c1cc(F)cc(F)c1)N1CCC(C(CO)N2CCC(c3n[nH]c4ccccc34)CC2)CC1 (stereo not shown) [Cpd 173, (2E)-3-(3,5-difluoro-phenyl)-1-(4-{2-hydroxy-1-[4-(1H-indazol-3-yl)-piperidin-1-yl]-ethyl}-piperidin-1-yl)-propenone] |  |  |  | Inhibition of MCP-1 Induced Calcium Ion Influx, percent inhibition (THP-1 cells [3]; test concentration of 25 μM, IC50 not obtained): 21%; IC50 (THP-1 cells [4]): 130 nM; IC50 (CCR2; read-out: Inhibition of MCP-1 Binding IC50, 125I labeled MCP-1 binding to CCR2, THP-1 cells): 430 nM |
| COc1ccc(C2CCN(C(CO)C3CCN(C(=O)Nc4ccc(F)c(F)c4)CC3)CC2)cc1 (stereo not shown) [Cpd 141, 4-{2-hydroxy-1-[4-(4-methoxy-phenyl)-piperidin-1-yl]-ethyl}-piperidine-1-carboxylic acid (3,4-difluoro-phenyl)-amide] | 6900 | 760 | 340 |  |
| O=C(O)C(C1CCN(C(=O)/C=C/c2cccs2)CC1)N1CCC(c2c[nH]c3ccccc23)CC1 (stereo not shown) [Cpd 103, [4-(1H-indol-3-yl)-piperidin-1-yl]-{1-[(2E)-3-thiophen-2-yl-acryloyl]-piperidin-4-yl}-acetic acid] | 490 | 90 | 70 |  |
| Nc1cc2c(C3CCN(C(C(=O)O)C4CCN(C(=O)/C=C/c5cc(F)c(F)c(F)c5)CC4)CC3)c[nH]c2cn1 (stereo not shown) [Cpd 179, [4-(5-amino-1H-pyrrolo[2,3-c]pyridin-3-yl)-piperidin-1-yl]-{1-[(2E)-3-(3,4,5-trifluoro-phenyl)-acryloyl]-piperidin-4-yl}-acetic acid] | 2060 | 140 | 230 |  |
| O=C(c1cc2ccccc2o1)N1CCC(C(CO)N2CCC(c3c[nH]c4ccccc34)CC2)CC1 (stereo not shown) [Cpd 154, benzofuran-2-yl-(4-{2-hydroxy-1-[4-(1H-indol-3-yl)-piperidin-1-yl]-ethyl}-piperidin-1-yl)-methanone] | 4800 | 160 | 270 |  |
| O=C(O)C(C1CCN(C(=O)/C=C/c2ccsc2)CC1)N1CCC(c2c[nH]c3ccccc23)CC1 (stereo not shown) [Cpd 104, [4-(1H-indol-3-yl)-piperidin-1-yl]-{1-[(2E)-3-thiophen-3-yl-acryloyl]-piperidin-4-yl}-acetic acid] | 1010 | 160 | 90 |  |

The remaining molecules from weak to strong by IC50 (THP-1 cells [3]), led by results:

| IC50 (THP-1 cells [3]) [nM] | IC50 (THP-1 cells [4]; Homo sapiens) [nM] | IC50 (CCR2) [nM] | Structure (SMILES) | other results |
| --- | --- | --- | --- | --- |
| 140 | 100 | 100 | COc1ccc(C2CCN(C(CO)C3CCN(C(=O)/C=C/c4cc(F)c(F)c(F)c4)CC3)CC2)cc1 (stereo not shown) [Cpd 158, (2E)-1-(4-{2-hydroxy-1-[4-(4-methoxy-phenyl)-piperidin-1-yl]-ethyl}-piperidin-1-yl)-3-(3,4,5-trifluoro-phenyl)-propenone] |  |
| 130 | 140 | 80 | O=C(O)C(C1CCN(C(=O)Nc2cc(C(F)(F)F)cc(C(F)(F)F)c2)CC1)N1CCC(c2c[nH]c3ccccc23)CC1 (stereo not shown) [Cpd 136, [1-(3,5-bis-trifluoromethyl-phenylcarbamoyl)-piperidin-4-yl]-[4-(1H-indol-3-yl)-piperidin-1-yl]-acetic acid] |  |
| 120 | 90 | 70 | COc1ccc(C2CCN([C@H](CO)C3CCN(C(=O)/C=C/c4cc(F)cc(F)c4)CC3)CC2)cc1 [Cpd 180, (2E)-3-(3,5-difluoro-phenyl)-1-(4-{(1S)-2-hydroxy-1-[4-(4-methoxy-phenyl)-piperidin-1-yl]-ethyl}-piperidin-1-yl)-propenone] |  |
| 110 | 190 | 210 | O=C(O)C(C1CCN(C(=O)/C=C/c2cc(F)c(F)c(F)c2)CC1)N1CCC(c2c[nH]c3cccnc23)CC1 (stereo not shown) [Cpd 207, [4-(1H-pyrrolo[3,2-b]pyridin-3-yl)-piperidin-1-yl]-{1-[(2E)-3-(3,4,5-trifluoro-phenyl)-acryloyl]-piperidin-4-yl}-acetic acid] |  |
| 110 | 25 | 80 | COc1ccc2c(C3CCN(C(CO)C4CCN(C(=O)/C=C/c5cc(F)cc(F)c5)CC4)CC3)c[nH]c2c1 (stereo not shown) [Cpd 165, (2E)-3-(3,5-difluoro-phenyl)-1-(4-{2-hydroxy-1-[4-(6-methoxy-1H-indol-3-yl)-piperidin-1-yl]-ethyl}-piperidin-1-yl)-propenone] |  |
| 8 | 15 | 19.3 | O=C(/C=C/c1cc(F)cc(F)c1)N1CCC(C(CO)N2CCC(c3c[nH]c4ncccc34)CC2)CC1 (stereo not shown) [Cpd 202, (2E)-3-(3,5-difluoro-phenyl)-1-(4-{2-hydroxy-1-[4-(1H-pyrrolo[2,3-b]pyridin-3-yl)-piperidin-1-yl]-ethyl}-piperidin-1-yl)-propenone] |  |
| 2 | 20 | 7 | COc1ccc2[nH]cc(C3CCN(C(CO)C4CCN(C(=O)/C=C/c5ccc(Cl)c(Cl)c5)CC4)CC3)c2c1 (stereo not shown) [Cpd 162, (2E)-3-(3,4-dichloro-phenyl)-1-(4-{2-hydroxy-1-[4-(5-methoxy-1H-indol-3-yl)-piperidin-1-yl]-ethyl}-piperidin-1-yl)-propenone] |  |
